The series in a line: Net charge vs pH of the payload molecule. It counts as physicochemical. The text has this:
Step 2: This is an essential step. For short payload molecules with a single ionizable group is enough to know pKa, so the useful pH range is pH>pKa+1 for acidic compounds and pH<pKa−1 for basic compounds. For payloads that are macromolecules with multiple different ionizable groups, such as peptides and proteins, must be measured or calculated net charge vs pH dependence for the full pH range (0-14). Provided three examples, refer to FIGS. 1 to 3.
For the vancomycin example, there are two ranges of pH where it is ionized (FIG. 1), one is pH 1 and below and the second range is pH 8 and up. Vancomycin at pH ˜1 acquires net charge +1, however at pH 12, the net charge is −4.5. Therefore, vancomycin must be encapsulated at pH 12 by the disclosed method as a “negatively charged payload”. Note, in the range of pH from 3 to 7.5 it is impossible to encapsulate vancomycin because it has no charge.
Both Cas9 and Cas13 endonucleases have to be encapsulated at pH<4 as “positively charged payloads”.

For one compound, net charge results are on record in patent US20240226245A9, “ZIP-IN TECHNOLOGY FOR ANTIVIRAL THERAPEUTIC NANOFORMULATIONS” (PAROLE LABORATORIES INC., priority 2022, published 2024).

For the compound `CN[C@H](CC(C)C)C(=O)N[C@H]1C(=O)N[C@@H](CC(N)=O)C(=O)N[C@H]2C(=O)N[C@H]3C(=O)N[C@H](C(=O)N[C@H](C(=O)O)c4cc(O)cc(O)c4-c4cc3ccc4O)[C@H](O)c3ccc(c(Cl)c3)Oc3cc2cc(c3O[C@@H]2O[C@H](CO)[C@@H](O)[C@H](O)[C@H]2O[C@H]2C[C@](C)(N)[C@H](O)[C@H](C)O2)Oc2ccc(cc2Cl)[C@H]1O` [Vancomycin, vancomycin], the net charge is, setting by setting: (pH 12 (FIG. 1)) −4.5; (pH from 3 to 7.5 (FIG. 1)) “no charge”; (pH ˜1 (FIG. 1)) “+1”.
